Data from ChEMBL document CHEMBL1649303, “Effects of subinhibitory concentrations of antibiotics on colonization factor expression by moxifloxacin-susceptible and moxifloxacin-resistant Clostridium difficile strains” (2009).
In brackets after ≈: the same amount, converted by molar mass.

Assays:
Format in all cases: functional
[1] = test system: Clostridioides difficile; assay: Antimicrobial activity against Clostridium difficile 6269 by broth dilution method
[2] = test system: Clostridioides difficile; assay: Antimicrobial activity against Clostridium difficile CD07-259 by broth dilution method
[3] = test system: Clostridioides difficile; assay: Antimicrobial activity against Clostridium difficile 6425 by broth dilution method
[4] = test system: Clostridioides difficile; assay: Antimicrobial activity against Clostridium difficile CD196 by broth dilution method
[5] = test system: Clostridioides difficile; assay: Antimicrobial activity against Clostridium difficile ATCC 43603 by broth dilution method
[6] = Antimicrobial activity against Clostridium difficile CD196 M1 by broth dilution method; settings: Clostridioides difficile
[7] = test system: Clostridioides difficile; assay: Upregulation of slpA gene expression in Clostridium difficile ATCC 43603-M1 at 0.5 times MIC by real-time PCR analysis relative to control
[8] = test system: Clostridioides difficile; assay: Upregulation of slpA gene expression in Clostridium difficile ATCC 43603 at 0.5 times MIC by real-time PCR analysis relative to control
[9] = test system: Clostridioides difficile; assay: Upregulation of fbp68 gene expression in Clostridium difficile ATCC 43603-M1 at 0.5 times MIC by real-time PCR analysis relative to control
[10] = test system: Clostridioides difficile; assay: Induction of Cwp84 protease expression in Clostridium difficile ATCC 43603-M1 at 0.5 times MIC by immunoblot analysis
[11] = test system: Clostridioides difficile; assay: Upregulation of fbp68 gene expression in Clostridium difficile ATCC 43603 at 0.5 times MIC by real-time PCR analysis relative to control
[12] = test system: Clostridioides difficile; assay: Upregulation of cwp84 gene expression in Clostridium difficile ATCC 43603-M1 at 0.5 times MIC by real-time PCR analysis relative to control
[13] = test system: Clostridioides difficile; assay: Upregulation of slpA gene expression in Clostridium difficile 6425 at 0.5 times MIC by real-time PCR analysis relative to control
[14] = test system: Clostridioides difficile; assay: Upregulation of cwp84 gene expression in Clostridium difficile ATCC 43603 at 0.5 times MIC by real-time PCR analysis relative to control
[15] = test system: Clostridioides difficile; assay: Antimicrobial activity against Clostridium difficile ATCC 43603-M1 by broth dilution method
[16] = test system: Clostridioides difficile; assay: Induction of Cwp84 protease expression in Clostridium difficile 6425 at 0.5 times MIC by immunoblot analysis
[17] = test system: Clostridioides difficile; assay: Upregulation of slpA gene expression in Clostridium difficile CD07-259 at 0.5 times MIC by real-time PCR analysis relative to control

Row | Structure (SMILES) | MIC [1] | MIC [2] | MIC [3] | MIC [4] | MIC [5] | MIC [6] | fold change (FC) [7] | fold change (FC) [8] | fold change (FC) [9] | Activity [10] | fold change (FC) [11] | fold change (FC) [12] | fold change (FC) [13] | fold change (FC) [14] | MIC [15] | Activity [16] | fold change (FC) [17]
1 | CC1(C)S[C@@H]2[C@H](NC(=O)[C@H](N)c3ccccc3)C(=O)N2[C@H]1C(=O)O [AMPICILLIN] | 2 µg/mL (≈ 5.72 µM) | 4 µg/mL (≈ 11.4 µM) | 4 µg/mL (≈ 11.4 µM) | 8 µg/mL (≈ 22.9 µM) | 2 µg/mL (≈ 5.72 µM) |  |  |  |  |  |  |  |  |  |  |  | 
2 | CCC[C@@H]1C[C@@H](C(=O)N[C@@H]([C@H]2O[C@H](SC)[C@H](O)[C@@H](O)[C@H]2O)[C@H](C)Cl)N(C)C1 [CLINDAMYCIN] | 1 µg/mL (≈ 2.35 µM) | 4 µg/mL (≈ 9.41 µM) | 128 µg/mL (≈ 301 µM) | 128 µg/mL (≈ 301 µM) | 4 µg/mL (≈ 9.41 µM) |  |  |  |  |  |  |  |  |  |  |  | 
3 | CC1COc2c(N3CCN(C)CC3)c(F)cc3c(=O)c(C(=O)O)cn1c23 (configuration not stated) [OFLOXACIN] | 32 µg/mL (≈ 88.6 µM) | 256 µg/mL (≈ 708 µM) | 256 µg/mL (≈ 708 µM) | 8 µg/mL (≈ 22.1 µM) | 8 µg/mL (≈ 22.1 µM) | 128 µg/mL (≈ 354 µM) | 32.8 | 3.9 | 2.1 | 25% | 4.8 | 67.4 | 4 | 3.2 | 256 µg/mL (≈ 708 µM) | 130% | 22
